# Experimental data as given in US20220265644A1, “FIXED DOSE COMBINATION DRUG FOR THE TREATMENT OF MALARIA” (priority 2020, published 2022).
# Key:
# [1] = tested on: early ring stages from artemisinin-resistant and artemisinin-sensitive parasites (P. falciparum); experiment: Ring Stage Assay (RSA) as per WHO's recommendation; type: cell-based; details: at 700 nM
# P. vivax [2] = experiment: Synriam Phase III, N=317, randomized, open label, multi-centric, uncomplicated P. vivax malaria; type: in vivo; details: Adults, Children >12 - 65 Y
# P. vivax [3] = experiment: Synriam Phase III, N=164, randomized, open label, multi-centric, uncomplicated P. vivax malaria; type: in vivo; details: Children 6 months - 12 Y
Compound,cross-resistance to DHA [1],activity against early ring stages ([1]; artemisinin-resistant and artemisinin-sensitive parasites),"Proportion of aparasitemic & afebrile patients at 72 h (%) ITT (P. vivax [2]; 72 h, ITT) [%]","Proportion of aparasitemic & afebrile patients at 72 h (%) PP (P. vivax [2]; 72 h, PP) [%]",FCT Median (h) (P. vivax [2]; India) [vs. 24 h],PCT Median (P. vivax [2]; India) [h],"Proportion of aparasitemic & afebrile patients at 72 h (%) ITT (P. vivax [3]; 72 h, ITT) [%]","Proportion of aparasitemic & afebrile patients at 72 h (%) PP (P. vivax [3]; 72 h, PP)",FCT Median (P. vivax [3]; India) [h],PCT Median (P. vivax [3]; India) [h]
Arterolane,no cross-resistance to DHA,extremely active,–,–,–,–,–,–,–,–
CCN(CC)CCCC(C)Nc1ccnc2cc(Cl)ccc12 (stereo not shown) [Chloroquine],–,–,98.7,99.3,24,26,100,PP: 100 vs. 100%,18,24
